In ChEMBL document CHEMBL2424645, “Phosphorylated ganciclovir derivatives: design, synthesis and in vitro and in vivo immunomodulatory activity” (Med Chem Res, 2013) one finds LD50 and Activity data, which are given here for 13 compounds.

Activity calls are given as the source filed them. No cut-off for these calls is given here.

Usually LD50 stands for the dose expected to kill half of the subjects tested.

Data set [1] in a line: Toxicity in Wistar albino rat. Type of data set: organism-based. The conditions noted are these: in vivo.
Data set [2] relates to Neutrophil. Put plainly: Immunomodulatory activity in human neutrophils assessed as increase in intracellular killing activity at 20 ug/mL after 20 mins by NBT dye reduction assay relative to control. It counts as functional. Also noted: scale not given: the % may be the effect or the level left.
Data set [3] has as its system Neutrophil. The data set is described as follows: Immunomodulatory activity in human neutrophils assessed as increase in intracellular killing activity at 10 ug/mL after 20 mins by NBT dye reduction assay relative to control. More on the design: scale not given: the % may be the effect or the level left. Type of data set: functional.
Data set [4] has as its system Neutrophil. Put plainly: Immunomodulatory activity in human neutrophils assessed as increase in intracellular killing activity at 1000 ug/mL after 20 mins by NBT dye reduction assay relative to control. Type of data set: functional. More on the design: scale not given: the % may be the effect or the level left.
For data set [5], the system named is Neutrophil. The data set is described as follows: Immunomodulatory activity in human neutrophils assessed as increase in intracellular killing activity at 100 ug/mL after 20 mins by NBT dye reduction assay relative to control. It counts as functional. More on the design: scale not given: the % may be the effect or the level left.
Data set [6] relates to Neutrophil. The data set is described as follows: Immunomodulatory activity in human neutrophils assessed as increase in intracellular killing activity at 40 ug/mL after 20 mins by NBT dye reduction assay relative to control. Type of data set: functional. Also noted: scale not given: the % may be the effect or the level left.
Data set [7] concerns Rattus norvegicus. The data set is described as follows: Immunomodulatory activity in high fat diet-induced obese Wistar albino rat impaired immune model assessed as CRP level at 8 mg/kg, po after 8 weeks by ELISA relative to high fat-diet fed rat with immune dysfunction. It counts as functional. In general terms: In an ELISA, binding on a coated surface is turned into a signal by an enzyme label.

Data set [8] relates to Rattus norvegicus. The data set is described as follows: Immunomodulatory activity in high fat diet-induced obese Wistar albino rat impaired immune model assessed as IL-1 level at 8 mg/kg, po after 8 weeks by ELISA relative to relative to high fat-diet fed rat with immune dysfunction. Type of data set: functional.
The subject of data set [9] is Rattus norvegicus. Put plainly: Immunomodulatory activity in high fat diet-induced obese Wistar albino rat impaired immune model assessed as IL-6 level at 8 mg/kg, po after 8 weeks by ELISA relative to vehicle-treated control. It counts as functional.
The subject of data set [10] is Rattus norvegicus. Put plainly: Immunomodulatory activity in high fat diet-induced obese Wistar albino rat impaired immune model assessed as TNF-alpha level at 8 mg/kg, po after 8 weeks by ELISA relative to vehicle-treated control. Type of data set: functional.
Data set [11] deals with Rattus norvegicus. The data set is described as follows: Immunomodulatory activity in high fat diet-induced obese Wistar albino rat impaired immune model assessed as decrease in total monocytes count at 8 mg/kg, po after 8 weeks by hematology analyser relative to control. Also noted: dose 8 mg/kg. It counts as functional, organism-based.
Data set [12] has as its system Rattus norvegicus. The data set is described as follows: Immunomodulatory activity in high fat diet-induced obese Wistar albino rat impaired immune model assessed as decrease in total neutrophils count at 8 mg/kg, po after 8 weeks by hematology analyser relative to control. Type of data set: functional, organism-based. Also noted: dose 8 mg/kg.
For data set [13], the system named is Rattus norvegicus. Put plainly: Immunomodulatory activity in high fat diet-induced obese Wistar albino rat impaired immune model assessed as decrease in total lymphocytes count at 8 mg/kg, po after 8 weeks by hematology analyser relative to control. Type of data set: functional, organism-based. More on the design: dose 8 mg/kg.

Take `CCOC(=O)C(CC(C)C)NCP1(=O)OCC(OCn2cnc3c(=O)[nH]c(N)nc32)CO1` (stereo not given): in data set [1], the LD50 turned out to be 80 mg/kg. Also, the Activity with Neutrophil [2] was 40.92%; with Neutrophil [3] it was 39.17%; with Neutrophil [4], 58.03%; with Neutrophil [5], 51.44%; with Neutrophil [6], 49.31%. Further, in the data set on Rattus norvegicus [7], the outcome was inactive.

Regarding `NCCNCP1(=O)OCC(OCn2cnc3c(=O)[nH]c(N)nc32)CO1` (stereo not given), the result in the data set on Rattus norvegicus [8], with Rattus norvegicus [9], with Rattus norvegicus [7] and in the data set with Rattus norvegicus [10] was inactive. In data set [1], the LD50 came out at 80 mg/kg. Further, the Activity in the data set on Neutrophil [2] is given as 42.51%; in the data set on Neutrophil [3] it was 40.12%; in the data set on Neutrophil [4] it was 50.46%; with Neutrophil [5], 47.3%; with Neutrophil [6] it was 45.35%.

For the compound `NCCSCP1(=O)OCC(OCn2cnc3c(=O)[nH]c(N)nc32)CO1` (stereo not given), the result in the data set with Rattus norvegicus [8], in the data set on Rattus norvegicus [9], with Rattus norvegicus [7] and with Rattus norvegicus [10] was inactive. In [1], this compound gave an LD50 of 80 mg/kg. For the same compound, the Activity in the data set on Neutrophil [2] worked out at 45.64%; with Neutrophil [3], 33.77%; with Neutrophil [4] it was 57.91%; in the data set with Neutrophil [5], 50.36%; in the data set with Neutrophil [6], 49.32%.

With `CCC(CO)NCP1(=O)OCC(OCn2cnc3c(=O)[nH]c(N)nc32)CO1` (stereo not given), the result in the data set with Rattus norvegicus [8], in the data set with Rattus norvegicus [9], in the data set with Rattus norvegicus [7] and with Rattus norvegicus [10] was inactive. The compound also returned an LD50 in data set [1] of 80 mg/kg. Besides, the Activity in the data set on Neutrophil [2] came out at 43.15%; with Neutrophil [3] it was 31.37%; in the data set with Neutrophil [4], 54.32%; in the data set on Neutrophil [5], 53.98%; in the data set with Neutrophil [6], 46.76%.

In the case of `CCOC(=O)C(NCP1(=O)OCC(OCn2cnc3c(=O)[nH]c(N)nc32)CO1)c1ccc(O)cc1` (stereo not given), in data set [1], the LD50 was found to be 80 mg/kg. In addition, the Activity is 42.46% with Neutrophil [2]; 39.58% with Neutrophil [3]; 62.25% in the data set with Neutrophil [4]; 52.31% with Neutrophil [5]; 49.49% with Neutrophil [6]. In addition, in the data set on Rattus norvegicus [7], the result was inactive.

Regarding `CCOC(=O)C(N)CSCP1(=O)OCC(OCn2cnc3c(=O)[nH]c(N)nc32)CO1` (stereo not given), the Activity worked out at 122.9 pg/mL with Rattus norvegicus [8]; 56.34% with Neutrophil [2]; 45.03% with Neutrophil [3]; 66.82% in the data set on Neutrophil [4]; 60.16% with Neutrophil [5]; 58.04% with Neutrophil [6]. The Activity in the data set on Rattus norvegicus [9] came to 5.2 pg/mL; in the data set on Rattus norvegicus [7], 21.9 ng/mL; with Rattus norvegicus [10], 36.5 pg/mL. The LD50 in data set [1] is 80 mg/kg. In addition, the outcome with Rattus norvegicus [11], with Rattus norvegicus [12] and with Rattus norvegicus [13] was Active.

Turning to `CCOC(=O)C(NCP1(=O)OCC(OCn2cnc3c(=O)[nH]c(N)nc32)CO1)c1ccccc1` (stereo not given), in [1], the 50% lethal dose (LD50) turned out to be 80 mg/kg. Also, the Activity is 43.11% in the data set with Neutrophil [2]; 40.62% in the data set with Neutrophil [3]; 60.32% in the data set on Neutrophil [4]; 52.91% in the data set with Neutrophil [5]; 46.63% with Neutrophil [6]. In addition, the outcome in the data set with Rattus norvegicus [7] was inactive.

Regarding `CCOC(=O)C(CO)NCP1(=O)OCC(OCn2cnc3c(=O)[nH]c(N)nc32)CO1` (stereo not given), in data set [1], the LD50 is 80 mg/kg. In addition, the Activity stood at 39.92% in the data set with Neutrophil [2]; 39.8% with Neutrophil [3]; 56.02% in the data set with Neutrophil [4]; 53.09% in the data set with Neutrophil [5]; 48.11% with Neutrophil [6]. Besides, in the data set on Rattus norvegicus [7], the outcome was inactive.

For the compound `Nc1nc2c(ncn2COC2COP(=O)(COCCO)OC2)c(=O)[nH]1` (stereo not given), the outcome in the data set with Rattus norvegicus [8], in the data set on Rattus norvegicus [9], in the data set on Rattus norvegicus [7] and with Rattus norvegicus [10] was inactive. In [1], this compound had an LD50 of 80 mg/kg. In addition, the Activity in the data set on Neutrophil [2] was 46.44%; in the data set on Neutrophil [3], 34.31%; with Neutrophil [4], 53.02%; with Neutrophil [5], 51.23%; in the data set with Neutrophil [6], 49.85%.

`Nc1nc2c(ncn2COC2COP(=O)(CSCCO)OC2)c(=O)[nH]1` (stereo not given): the outcome in the data set with Rattus norvegicus [8], with Rattus norvegicus [9], in the data set with Rattus norvegicus [7] and in the data set with Rattus norvegicus [10] was inactive. In [1], the LD50 came out at 80 mg/kg. The Activity with Neutrophil [2] was 43.73%; in the data set with Neutrophil [3] it was 32.25%; in the data set on Neutrophil [4] it was 55.35%; in the data set with Neutrophil [5] it was 52.15%; with Neutrophil [6], 47.93%.

Compound `Nc1nc2c(ncn2COC(CO)CO)c(=O)[nH]1` [GANCICLOVIR] displayed an LD50 in data set [1] of 80 mg/kg. Also, the Activity with Neutrophil [2] amounted to 53.21%; with Neutrophil [3], 39.43%; in the data set with Neutrophil [4], 60.11%; in the data set on Neutrophil [5] it was 58.23%; with Neutrophil [6], 55.89%.

Take `Nc1nc2c(ncn2COC2COP(=O)(CNCCO)OC2)c(=O)[nH]1` (stereo not given): the result in the data set with Rattus norvegicus [8], in the data set on Rattus norvegicus [9], with Rattus norvegicus [7] and in the data set on Rattus norvegicus [10] was inactive. Further, the LD50 in data set [1] came to 80 mg/kg. The Activity amounted to 45.98% in the data set on Neutrophil [2]; 33.38% in the data set on Neutrophil [3]; 55.25% with Neutrophil [4]; 50.57% in the data set on Neutrophil [5]; 48.54% with Neutrophil [6].

As for `COC(=O)C(NCP1(=O)OCC(OCn2cnc3c(=O)[nH]c(N)nc32)CO1)C(C)C` (stereo not given), the Activity with Rattus norvegicus [8] was 123.6 pg/mL; in the data set with Neutrophil [2] it was 55.09%; in the data set with Neutrophil [3], 41.18%; in the data set with Neutrophil [4] it was 65.14%; in the data set on Neutrophil [5] it was 62.45%; with Neutrophil [6] it was 60.83%. In addition, the results for the Activity in the data set with Rattus norvegicus [9], in the data set on Rattus norvegicus [7] and in the data set on Rattus norvegicus [10] were 5.4 pg/mL, 22.3 ng/mL and 37.1 pg/mL, respectively. Moreover, the LD50 in data set [1] turned out to be 80 mg/kg. In addition, the outcome with Rattus norvegicus [11], in the data set with Rattus norvegicus [12] and with Rattus norvegicus [13] was Active.
